{"source": "patent US6887879B2", "about": "“Pharmaceutical combination of antiviral agents” (priority 1999, dated 2005)", "key": {"[1]": {"test": "Cytotoxicity, [3H]-thymidine uptake, Molt-4", "type": "cell-based", "details": "human, Molt-4 cells", "experimental": "(§1) The cellular toxicity of the BCH compounds were assessed on various cells using [^3H]-thymidine uptake. The various cells, including Molt-4, HT1080, DU-145, HepG 2 and HSF, were plated at a concentration of 1-2×10^3 cells per well (96 well plates). However, PHA-stimulated PBMCs were cultured at a concentration of 4×10^4. After a 24 hr incubation period, 10-fold serial diluted compounds (10^−4 M to 10^−10 M) were added to the culture medium and the cells were further incubated for 72 hrs. [^3H]-thymidine was added during the final 18 hr incubation period. After incubation with the [^3H]-thymidine, the cells were washed once with PBS, treated with trypsin it the cells were adherent, and then resuspended in water (hypotonic lysing of cells) The cellular extract was applied directly to a Tomtec Harvester 96. Using this instrument the extracted DNA is adsorbed onto filters, washed and the incorporated [^3H]-thymidine is then counted."}, "[2]": {"test": "Cytotoxicity, [3H]-thymidine uptake, DU145", "type": "cell-based", "details": "human, DU145 cells", "experimental": "as §1"}, "[3]": {"test": "Cytotoxicity, WST-1 cell viability assay", "type": "cell-based, human", "details": "human, CBMCs, MT-2, H9, Jurkat and U937 cells; WST-1 cell viability assay", "experimental": "The cellular toxicity of the compounds was also tested by WST-1 staining through assessing proliferation of MT-2, H9, Jurkat, U937, and CBMCs. The established cell lines were cultured in RPMI medium in 96-well plates at a density of 5×10^4 cells/well while CBMCs were plated at a concentration of 0.5×10^6/well. A 10-fold serial diluted (10^−4−10^−7 M) compound was added at day zero. At day 4, the cells were passaged by changing half medium containing appropriately diluted compound. The cell activities were assessed at day 7 using the WST-1 reagent (Boehringer Mannheim) following the protocol provided by the supplier."}, "[4]": {"test": "Cytotoxicity, [3H]-thymidine uptake, HepG2", "type": "cell-based", "details": "human, HepG2 cells", "experimental": "as §1"}, "[5]": {"test": "Cytotoxicity, [3H]-thymidine uptake, HT-1080", "type": "cell-based", "details": "human, HT-1080 cells", "experimental": "as §1"}, "HIV-1IIIB": {"tested_on": "HIV-1IIIB", "test": "Anti-HIV-1 antiviral assay, laboratory strain HIV-1IIIB, RT activity in culture supernatants", "protocol": "Most experiments were performed with a laboratory strain HIV-1III. […] The cells were incubated with virus using the indicated multiplicity of infection (MOI) for 2-3 hrs. The MOI used for each experiment was dependent upon the cell line and virus strain used, and was generally in the range of 0.005 to 0.5. For example, in assays performed using the established cell line MT-2, HIV-1IIIB at an MOI of 0.005 was used to infect cells. The unbound virus was then removed by washing the cells, followed by plating the cells into a 96-well plate. The infected cells were cultured in the presence of a serial concentrations of the test compound for 5-7 days. The anti-HIV-1 efficacy was determined by testing for HIV-1 RT activity in the cell culture supernatants. All assays were performed in duplicate and at least two independent experiments were performed. […] The susceptibilities of the HIV-1 variants to antiretroviral agents are expressed as the mean of the EC50 determinations."}, "[6]": {"test": "Cytotoxicity, [3H]-thymidine uptake, HSF", "type": "cell-based", "details": "human, human skin fibroblasts (HSF)", "experimental": "as §1"}, "[7]": {"tested_on": "HIV-1 clinical isolate 4833", "test": "microbe, parasite or virus in culture", "type": "cell-based", "experimental": "(§2) HIV-1IIIB laboratory strain and HXB2-D recombinant of HIV-1 were kindly supplied by R. C. Gallo (Institute of Human Virology, Baltimore, Md.). […] The recombinant viruses were generated by transfection of proviral DNA into MT-4 cells with Lipofectamine using the protocol recommended by the manufacturer .(Gibco BRL, Montreal, Canada). […] Stock viruses were prepared from clarified culture supernatants by centrifugation and stored at −70° C. The viruses were titrated by limited dilution with a 4-fold serial dilution.\n(§3) The population of HIV-1 in infected individual is quasispecies and the sensitivity of these different viruses found in clinical isolates to antiviral chemotherapy might be quite variable. In addition, HIV-1 isolates obtained from patients receiving long-term antiretroviral therapy might behave differently from cloned virus containing genetically engineered mutations in the RT gene. For these reasons, clinical isolates of HIV-1 from antiviral naive and drug-treated patients were assayed in PHA-stimulated CBMCs for their sensitivity to DXG and DAPD accompanied with approved antiretroviral agents. The genotype of the HIV-1 clinical isolates were determined as described above."}, "[8]": {"tested_on": "HIV-1 clinical isolate 4526", "test": "Antiviral assay, HIV-1 clinical isolate 4526, CBMCs", "type": "cell-based", "details": "Human immunodeficiency virus 1, naive", "experimental": "as §2, §3"}, "[9]": {"tested_on": "recombinant HXB2-D 10R/46I/63P/82T/84V", "test": "microbe, parasite or virus in culture", "type": "cell-based, HIV-1", "details": "Human immunodeficiency virus 1, HXB2, read-out: EC50 in CBMCs", "experimental": "as §2"}, "[10]": {"tested_on": "HIV-1 clinical isolate 4877", "test": "microbe, parasite or virus in culture", "type": "cell-based", "details": "Human immunodeficiency virus 1, read-out: EC50 in CBMCs", "experimental": "as §2, §3"}, "[11]": {"tested_on": "HIV-1 clinical isolate 4924", "test": "microbe, parasite or virus in culture", "type": "cell-based", "experimental": "as §2, §3"}, "wt HIV-1 RT": {"molecular_target": "T1, wt HIV-1 RT (Human immunodeficiency virus type 1 group M subtype B, UniProt P04585)", "T1 construct": "Wild type (wt) version of recombinant HIV-1 RT were expressed with a histidine tag; histidine tag; made in house; host or cells: E. coli", "test": "Chain elongation/termination assay", "type": "biochemical", "details": "HIV-PBS template, dPR primer, raising inhibitor concentration", "experimental": "RT inhibition assay. The inhibition of HIV-1 RT RNA dependent DNA polymerase activity of DXG-TP was assessed under steady-state enzymatic kinetics by employing homopolymeric RNA templates/DNA primers (T/P) and a heteropolymeric RNA template/DNA primer. The heteropolymeric RNA template contains the HIV-1 primer binding sequence, US and R regions (designated as HIV-PBS). […] The oligodeoxynucleotide primer (dPR) is an 18-mer (5′-[…]-3′) which is complementary to the HIV-1 primer binding sequence. […] Inhibition of dNTP incorporation/chain termination. […] HIV-PBS RNA template and dPR DNA primer were used in this system. The RT reactions were performed in […] containing 50 mM Tris (pH 7.8), 75 mM KCl, 10 mM MgCl2, 100 μM of dNTPs. […] The reactions were allowed to proceed at 37° C. for 60 min in the presence or absence of inhibitors. The transcribed DNA products were separated on a 5% denaturing polyacrylamide gel and visualized by exposure to X-ray film.\nThe chain elongation/termination assay provides a method to directly visualize the products of incorporation of dideoxynucleotide monophosphates into nascent DNA by monitoring the reaction products using polyacrylamide gel electrophoresis. The experiment was performed using wt HIV-1 RT, and HIV-PBS heteropolymeric template, and [^32p]ATP labeled dPR primer in the presence of various concentrations of RT inhibitor. […] As comparison, NNRTI nevirapine was also used in the assay."}, "[12]": {"tested_on": "recombinant HXB2-D 106A/181C", "test": "microbe, parasite or virus in culture", "type": "cell-based, HIV-1", "details": "Human immunodeficiency virus 1, HXB2, read-out: EC50 in CBMCs", "experimental": "as §2"}, "[13]": {"test": "Cytotoxicity, [3H]-thymidine uptake, PBMC", "type": "cell-based", "details": "human, PHA-stimulated PBMCs", "experimental": "as §1"}}, "note": "Where two headings read alike, the source gives them in different places."}
{"compound": "Cc1cn([C@H]2C[C@H](N=[N+]=[N-])[C@@H](CO)O2)c(=O)[nH]c1=O", "note": "[AZT, zidovudine, reference compound]", "values": [{"measurement": "CC50 at 72 h", "setting": "[1]", "result": 3, "unit": "µM"}, {"measurement": "CC50 at 72 h", "setting": "[2]", "result": "> 10", "unit": "µM"}, {"measurement": "CC50 at 7 days", "setting": "[3]", "result": 74, "unit": "µM"}, {"measurement": "CC50 at 72 h", "setting": "[4]", "result": 3, "unit": "µM"}, {"measurement": "CC50 at 72 h", "setting": "[5]", "result": 5, "unit": "µM"}, {"measurement": "EC50", "setting": "HIV-1IIIB; Human immunodeficiency virus 1, Jurkat, read-out: EC50, mean values ± SD", "result": "0.011 ± 0.007", "unit": "µM"}, {"measurement": "EC50", "setting": "HIV-1IIIB; Human immunodeficiency virus 1, MT2, read-out: EC50, mean values ± SD", "result": "0.0076 ± 0.0044", "unit": "µM"}, {"measurement": "EC50", "setting": "HIV-1IIIB; Human immunodeficiency virus 1, MT4, read-out: EC50, mean values ± SD", "result": "0.008 ± 0.005", "unit": "µM"}, {"measurement": "EC50", "setting": "HIV-1IIIB; Human immunodeficiency virus 1, U-937", "result": 0.025, "unit": "µM"}, {"measurement": "EC50", "setting": "HIV-1IIIB; Human immunodeficiency virus 1, read-out: EC50, mean values ± SD", "result": "0.0051 ± 0.003", "unit": "µM"}, {"measurement": "CC50 at 72 h", "setting": "[6]", "result": "> 10", "unit": "µM"}]}
{"compound": "CC(C)(C)NC(=O)[C@@H]1C[C@@H]2CCCC[C@@H]2CN1C[C@@H](O)[C@H](Cc1ccccc1)NC(=O)[C@H](CC(N)=O)NC(=O)c1ccc2ccccc2n1", "note": "[saquinavir, reference compound]", "values": [{"measurement": "decreased sensitivity compared to the baseline isolate 4526", "setting": "[7]", "result": "about 20 fold"}, {"measurement": "EC50", "setting": "[7]; Human immunodeficiency virus 1, therapy Saquinavir (48 weeks), read-out: EC50 in CBMCs", "result": 0.11, "unit": "µM"}, {"measurement": "EC50", "setting": "[8]", "result": 0.0063, "unit": "µM"}, {"measurement": "EC50", "setting": "[9]", "result": 0.075, "unit": "µM"}]}
{"compound": "Cc1ccnc2c1NC(=O)c1cccnc1N2C1CC1", "note": "[nevirapine, reference compound]", "values": [{"measurement": "EC50", "setting": "[10]", "result": 0.065, "unit": "µM"}, {"measurement": "EC50", "setting": "[11]; Human immunodeficiency virus 1", "result": "> 10", "unit": "µM"}, {"measurement": "EC50", "setting": "[11]; Human immunodeficiency virus 1, read-out: EC50 in CBMCs", "result": "> 10", "unit": "µM"}, {"measurement": "chain termination / full-length products, in words", "setting": "wt HIV-1 RT", "result": "showed the decrease of the full-length DNA products, but there were no extra chain termination bands generated"}, {"measurement": "EC50", "setting": "[12]", "result": "> 10", "unit": "µM"}]}
{"compound": "Nc1ccn([C@@H]2CS[C@H](COP(=O)(O)OP(=O)(O)OP(=O)(O)O)O2)c(=O)n1", "note": "[lamivudine-TP]", "values": [{"measurement": "chain termination / full-length products, in words", "setting": "wt HIV-1 RT", "result": "caused increasing chain termination but decreasing full-length products"}]}
{"compound": "Nc1ccn([C@H]2CC[C@@H](CO)O2)c(=O)n1", "note": "[ddC, 2′,3′-dideoxycytidine]", "values": [{"measurement": "CC50 at 72 h", "setting": "[1]", "result": 2, "unit": "µM"}, {"measurement": "CC50 at 72 h", "setting": "[2]", "result": 5, "unit": "µM"}, {"measurement": "CC50 at 7 days", "setting": "[3]", "result": 29, "unit": "µM"}, {"measurement": "CC50 at 72 h", "setting": "[4]", "result": 7, "unit": "µM"}, {"measurement": "CC50 at 72 h", "setting": "[5]", "result": 2, "unit": "µM"}, {"measurement": "CC50 at 72 h", "setting": "[13]", "result": 32.5, "unit": "µM"}]}
{"compound": "(+) enantiomer of -D-1′,3′-dioxolane guanosine", "values": [{"measurement": "EC50", "setting": "HIV-1IIIB; read-out: EC50, mean values ± SD, MT-2 cells, HIV-1IIIB", "result": 0.7, "unit": "µM"}]}
